Earlier results as cited in patent publication US8772510B2, “PDE10 modulators” (Hoffmann-La Roche Inc., priority 2011, dated 2014).

Molecular target: PDE10A (Rattus norvegicus (Rat), UniProt Q9QYJ6)
Details: rats, sub-chronic treatment with PCP; Rodefer et al. 2005

PDE10A, sequence (Q9QYJ6 whole entry): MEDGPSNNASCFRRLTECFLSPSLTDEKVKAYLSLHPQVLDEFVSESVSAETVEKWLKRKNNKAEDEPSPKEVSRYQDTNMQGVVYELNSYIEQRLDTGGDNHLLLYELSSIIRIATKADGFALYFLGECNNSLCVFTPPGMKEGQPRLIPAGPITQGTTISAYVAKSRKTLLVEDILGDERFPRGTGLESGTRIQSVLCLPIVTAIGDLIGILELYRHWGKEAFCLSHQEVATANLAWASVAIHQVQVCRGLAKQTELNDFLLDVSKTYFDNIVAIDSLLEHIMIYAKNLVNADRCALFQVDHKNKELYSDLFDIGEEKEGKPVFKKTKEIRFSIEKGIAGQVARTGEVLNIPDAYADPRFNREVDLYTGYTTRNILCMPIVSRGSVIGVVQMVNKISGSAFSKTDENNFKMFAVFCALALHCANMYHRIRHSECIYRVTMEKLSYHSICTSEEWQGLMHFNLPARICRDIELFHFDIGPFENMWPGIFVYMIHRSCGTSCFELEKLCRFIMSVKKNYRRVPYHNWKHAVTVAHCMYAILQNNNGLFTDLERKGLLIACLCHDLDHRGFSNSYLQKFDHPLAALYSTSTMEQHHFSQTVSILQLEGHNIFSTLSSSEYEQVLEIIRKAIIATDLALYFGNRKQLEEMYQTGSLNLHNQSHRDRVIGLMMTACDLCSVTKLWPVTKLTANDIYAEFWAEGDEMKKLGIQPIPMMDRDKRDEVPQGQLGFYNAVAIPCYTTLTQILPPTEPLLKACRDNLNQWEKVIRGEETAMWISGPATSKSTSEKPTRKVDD

## COc1ccc(Cc2nccc3cc(OC)c(OC)cc23)cc1OC [papaverine, Papaverine]
  deficits in extra-dimensional shift learning: attenuate the deficits in the extra-dimensional shift learning
